Reference: US20150071942A1, “COMBINATION THERAPY OF ANTI-MIF ANTIBODIES AND CHEMOTHERAPEUTICS” (Baxter Healthcare SA, priority 2012, published 2015)

Columns and labels:
[1] = system: A2780adr ovarian cancer cells; assay: Induction of apoptosis (caspase 3 activity) in doxorubicin-resistant ovarian cancer cells; type: cell-based, human; conditions: agent alone; 72 hours of treatment
Experimental: The percentage increased caspase 3 activity over non-treated cells is indicated. Cells were treated with a human isotype control IgG (Control IgG), anti-MIF antibody RAM0 or RAM9 alone, a combination of control IgG and doxorubicin (Control IgG+Dox), doxorubicin alone (Dox) or a combination of anti-MIF antibody and doxorubicin (RAM0+Dox or RAM9+Dox).
The induction of apoptosis was assessed by detection of caspase 3 activity after 72 hours of treatment.

A2780 cells = assay: Cisplatin-dependent cell killing assay (calcein-AM, flow cytometry); type: cell-based, human; conditions: in presence of 50 nM RAM0; 48 hours; p<0.01
Experimental: Data are the means±standard deviation of 9 independent experiments.
(§1) After 48 hours of incubation cells were detached with Accutase™, labeled with calcein-AM and the level of calcein fluorescence was determined by flow cytometry. The mean fluorescence intensity in the absence of any drug or antibody was set to 1 to normalize for interassay variations. The mean fluorescent intensities were blotted against the cisplatin concentration and the half maximum active concentrations of cisplatin (EC50-values) were calculated.

A2780 xenografts = assay: A2780 ovarian cancer xenograft in Mf1 nude mice (tumor growth); type: in vivo, human; conditions: monotherapy; RAM0 15 mg/kg every other day or cisplatin once a week
Experimental: Tumor weights are indicated after treatment of inoculated mice with a human control IgG or with RAM0. Antibodies were applied either alone or in combination with cisplatin.
This effect is of high relevance, in particular if it can also be observed in vivo. This was explored in female Mf1 nude mice inoculated with A2780 xenografts (FIG. 5). Mice (n=10/group) were inoculated with 1*10^6 A2780 cells resuspended in matrigel. […] Cisplatin was administered once a week starting on day 2 after xenograft inoculation.

[2] = system: BxPC3 human pancreatic cancer cells; assay: Orthotopic BxPC3 xenograft model for pancreatic cancer in nude mice (survival); type: in vivo; conditions: monotherapy, gemcitabine 100 mg/kg or RAM9 60 mg/kg alone
Experimental: Control groups were left untreated (left and right panel, dotted black line) or were treated with a control human monoclonal antibody (Control IgG, left panel, solid grey line) or with gemcitabine alone (Gemcitabine, left panel, solid black line). The survival curves represent the points in time when animals had to be sacrificed in accordance with UK Home Office Guidance.
BxPC3 cells are derived from a human pancreatic adenocarcinoma and grow inside the pancreas once they have been injected orthotopically in nude mice and present as a solid tumor. CD1-Foxn1/nu nude mice are orthotopically inoculated with 1×10^6 BxPC3 cells (injection of 30 μl matrigel:tumor cell suspension into the pancreas) and the tumor was allowed to establish for 7 days. […] Additional control groups were left untreated or received a control human IgG1 monoclonal antibody. The growth of internal tumors was judged by external signs (e.g. abdominal distension causing more than 20% increase in normal body weight, or a 20% loss in normal body weight) or clinical signs (e.g. dyspnoea, jaundice, neurological signs, digestive disturbances). Animals reaching the home office limit according to the UK home office guidance were sacrificed (for animal welfare reasons). The resulting survival curve was used as primary outcome of the study.

[3] = system: Colo357 human pancreatic cancer cell line; assay: Orthotopic Colo357 xenograft model for pancreatic cancer in nude mice (survival, tumor volume, microvessel density); type: in vivo; conditions: monotherapy
Experimental: Control groups were left untreated or were treated with gemcitabine alone (Gem) or a control human monoclonal antibody alone (Control) or with a control human monoclonal antibody in combination with gemcitabine (Control+Gem). (A) Survival curves representing the points in time when animals had to be sacrificed in accordance with UK Home Office Guidance. (B) Tumor volume was measured in as subset of animals after animals had been sacrificed on day 20 after cell implantation. (C) After treatment, mice bearing a Colo357 xenograft were injected i.v. with the FITC-conjugated tomato lectin to visualize the blood vessels on day 12. Microvessel density was quantified using ImagePro Plus software (Image-Pro plus, Media Cybernetics) and vessel density was expressed as the mean percentage of total surface area.
CD1-Foxn1/nu nude mice are orthotopically inoculated with 1×10^5 Colo357 cells (injection of 30 μl matrigel:tumor cell suspension into the pancreas) and the tumor was allowed to establish for 7 days. […]
We further analyzed […] vessel density in a small cohort of animals. […] Cell nuclei were stained using propidium iodide, and vessels were visualized using confocal microscopy (Zeiss LSM 510 META), and microvessel density was quantified using ImagePro Plus software (Image-Pro plus, Media Cybernetics). Vessel density was expressed as the mean

LnCAP cells = assay: Mitoxantrone-dependent cell killing assay (calcein-AM, flow cytometry); type: cell-based, human; conditions: for EC50: Homo sapiens, LNCaP, 48 h, n=10
Experimental: The single values as well as the mean±standard deviation of 10 independent experiments are shown.
as §1, with “plotted” for “blotted”, “mitoxantrone” for “cisplatin”

For `COc1cccc2c1C(=O)c1c(O)c3c(c(O)c1C2=O)C[C@@](O)(C(=O)CO)C[C@@H]3O[C@H]1C[C@H](N)[C@H](O)[C@H](C)O1` [Doxorubicin, reference compound], the “caspase 3 activity” value [1] was “significant but minor enhanced caspase 3 activity”.
For `N.N.[Cl][Pt][Cl]` [Cisplatin, reference compound], the EC50-value of cisplatin (A2780 cells) was “reduced significantly” and the tumor growth (A2780 xenografts) was “did not have any effect on tumor growth”.
`Nc1ccn([C@@H]2O[C@H](CO)[C@@H](O)C2(F)F)c(=O)n1` [Gemcitabine, reference compound] was tested, and the “survival of the xenografted mice” value [2] was “only marginally prolonged the survival”, the “blood vessel density in the tumour microenvironment” value ([3]; day 12, FITC-conjugated tomato lectin) was “Neither gemcitabine nor RAM0 have a significant effect” and the survival ([3]; gemcitabine 100 mg/kg or RAM0 60 mg/kg alone, i.p., Colo357 in nude mice) was “only prolonged survival to a marginal and statistically insignificant extent”.
For `O=C1c2c(O)ccc(O)c2C(=O)c2c(NCCNCCO)ccc(NCCNCCO)c21` [mitoxantrone, Mitoxantrone], the EC50 (LnCAP cells; in presence of 100 nM RAM0) was 0.97 nM, the EC50 (LnCAP cells; mitoxantrone alone) was 1.6 nM and the “mean EC50 of mitoxantrone” value (LnCAP cells; in presence of 100 nM human isotype control antibody, compared to mitoxantrone alone) was “identical mean EC50”.
